According to US11458141B2, “Aryl hydrocarbon receptor (AhR) agonists for the prevention and treatment of inflammatory disorders” (The Johns Hopkins University, priority 2017, dated 2022):
“Also recorded” adds a separate entry of the source.

How the values were obtained:
AHR signaling pathway = assay: Maternal I3C administration, Cypla1 mRNA in ileum of offspring with NEC; assay type: in vivo, mouse; conditions: mums 25 mg/kg oral gavage E7 to P7
Protocol: The pups whose mums received 25 mg/kg indole-3-carbinol (13C) by oral gavage starting from the embryonic age 7 (E7) of the fetus until the postnatal day 7 (P7) were included in maternal […]-rich group, while the pups whose mums received vehicle were included in maternal […]-free group. Necrotizing enterocolitis (NEC) was induced in 7-day-old mouse pups by gavage feeding and hypoxia exposure for 4 days. The ileum was harvested at the end of experiment and the mRNA expression of target genes was analyzed by qPCR. Referring now to FIG. 7, the mRNA expression of Cypla1, the down-stream gene of AHR signaling, was quantified in the ileum of experimental NEC models. Data are represented as mean±SEM; *p<0.05 between indicated groups; each dot represents an individual mouse.

[1] = tested on: Toll-like receptor 4 (Tlr4) mRNA in IEC-6 cells; assay: Tlr4 mRNA and microRNA expression in IEC-6 cells treated with I3C; assay type: cell-based, rat
Protocol: Rat intestinal epithelial cell line IEC-6 was treated with aryl hydrocarbon receptor (AHR) agonist indole-3-carbinol (13C) for 4 and 6 hours, and then the expression of Toll-like receptor 4 (Tlr4) mRNA and the microRNAs, which have been reported to down-regulate Tlr4 transcription, were quantified, respectively. Referring now to FIG. 22, the mRNA expression of Tlr4 was quantified in IEC-6 cells treated with AHR agonist […] for 6 hours. Data are represented as mean±SEM; *p<0.05 between indicated groups; each dot represents an individual sample. […] Referring now to FIG. 23, the expression of let-7i, miR-223, and miR-146b, which are microRNAs known to inhibit Tlr4 mRNA expression, was quantified in IEC-6 cells treated with AHR agonist […] for 4 hours. Data are represented as mean±SEM; *p<0.05 between indicated groups; each dot represents an individual sample.

mice with NEC [2] = assay: Experimental NEC model in 7-day-old mice (formula gavage, hypoxia, NEC stool bacteria), NEC severity; assay type: in vivo, mouse; conditions: for NEC severity: I3C oral 50 mg/kg/day, 50 mg/kg/day
Source text: The development of NEC requires TLR4 signaling in the intestinal epithelium. In seeking to understand the biological underpinnings of NEC, it has been discovered that activation within the intestinal epithelium of the receptor for gram-negative bacteria, namely toll-like receptor 4 (TLR4), is critical for the development of NEC. […] Further, mice that lack TLR4 in the intestinal epithelium (herein referred to as TLR4^ΔIEC mice) or globally (TLR4^−/−) were generated and then subjected to the well validated NEC model at 7 days of age. Mice were gavaged with formula, i.e., Similac Advance infant formula (Abbott Nutrition):Esbilac canince milk replacer (PetAb) in a 2:1 ratio at 50 μL/g every 3 hours, 10 mins hypoxia (5% O2 95% N2 in a Billups-Rothenberg chamber) twice daily for four days, and oral gavage of bacteria (1×10^5 cfu/mL) obtained from the stool of a patient with severe NEC. This experimental protocol induces patchy small intestinal necrosis, intestinal edema, and mucosal disruption very similar to human NEC in wild-type mice (FIG. 10), while mice lacking TLR4 in the intestinal epithelium (TLR4^ΔIEC mice) or globally (TLR4^−/−) were protected from NEC development. Mechanistically, TLR4 activation in the intestinal epithelium leads to an increase in apoptosis and a reduction in proliferation within the intestinal epithelium which leads to mucosal injury (FIG. 11). […]
Another aspect of the presently disclosed subject matter was to identify novel agonists of AHR which could be orally administered to prevent or treat experimental NEC, and which have greater potency and pharmacokinetic properties than the dietary-derived ligand I3C. To do so, an AHR-luciferase screen in intestinal epithelial cells (IEC-6 cells) was developed, then compound libraries were screened, and validation in vitro and in vivo using readouts of AHR activation by measuring the expression of Cyp1 was performed. […]

[3] = tested on: AHR activation and TLR4 signaling in enteroids; assay: Mouse enteroids: Cypla1 induction and TLR4 signaling; assay type: cell-based; conditions: I3C 200 μM
Source text: AHR activation by I3C or breast milk limits TLR4 signaling in the intestinal epithelium (FIG. 14). In seeking to investigate how AHR signaling attenuates NEC severity, whether AHR activation could limit the degree of TLR4 signaling in the gut was investigated. To do so, enteroids were derived from wild-type mice, which are intestinal cultures containing all cell lineages derived from intestinal crypts, as have been described.

mice with NEC [4] = assay: I3C to the pregnant mother (50 mg/kg/day), AHR activation and NEC in the pup; assay type: in vivo, mouse
Source text: The administration of the AHR ligand I3C to the pregnant mother prevents NEC in the newborn mouse (FIG. 16). […] Another aspect of the presently disclosed subject matter is to develop a diet rich in AHR ligands that could be administered to the mother, and protect against the development of NEC. […]

[5] = I3C 50 mg/kg/d to pregnant mice

OCc1c[nH]c2ccccc12 [I3C, indole-3-carbinol]
mRNA expression of Cypla1 (AHR signaling) in offspring (AHR signaling pathway): significantly activated the AHR signaling pathway
expression of let-7i ([1]; 4 hours): significantly increased
expression of miR-146b ([1]; 4 hours): significantly increased
expression of miR-223 ([1]; 4 hours): significantly increased
mRNA expression of Tlr4 ([1]; 6 hours): significantly reduced the expression of Tlr4 mRNA
NEC severity (mice with NEC [2]; AHR-/- mice): but not AHR^−/− mice; also recorded: does not protect
expression of proinflammatory gene IL-1 (mice with NEC [2]; mice afflicted with NEC): reduced the expression of proinflammatory gene IL-1
NEC severity (mice with NEC [2]; wild-type mice): reduces NEC severity; also recorded: limits NEC severity
Cypla1 induction ([3]; enteroids from wild-type mice): significantly induced the downstream molecule Cypla1; also recorded: induces Cypla1
TLR4 signaling (cytokine/TNF induction) ([3]; enteroids, conditioned media from NEC stool bacteria): reduced TLR4 signaling; also recorded: reduces TNF
NEC severity in the pup (mice with NEC [4]; [5]): significantly reduced NEC severity; also recorded: prevents NEC in the newborn mouse pup
cytokine (IL-6) induction in the pup (mice with NEC [4]; [5]): reduced cytokine induction; also recorded: decreased IL-6 expression
enterocyte apoptosis in the pup (mice with NEC [4]; [5]): reduced enterocyte apoptosis
mucosal injury / histology in the pup (mice with NEC [4]; [5]): reduced; also recorded: improved histology
proliferation in the pup intestinal mucosa (mice with NEC [4]; [5]): improved proliferation
Cypla1 expression in the intestine (AHR activation in utero) (mice with NEC [4]; I3C oral 50 mg/kg/day to the pregnant mother, 50 mg/kg/day): induced the downstream gene Cypla1 in the pup intestine; also recorded: leads to expression of Cypla1 in the intestinal epithelium of both the mother and the fetus
